US20160257697A1, “THIOPHENE-SUBSTITUTED TETRACYCLIC COMPOUNDS AND METHODS OFUSE THEREOF FOR THE TREATMENT OF VIRAL DISEASES” (priority 2013, published 2016)
Read-outs that look alike come from different tables or passages of the source.

Tests used:
Assay in all cases: microbe, parasite or virus in culture
Assay type in all cases: cell-based, Hepatitis C virus (HCV)
Conditions in all cases: Replicon Assay A
HCV replicon 1AY93H = system: HCV replicon 1AY93H
Procedure: (§1) To measure cell-based anti-HCV activity of compounds of the present invention, two complimentary assays were employed using various replicons. In the first assay (“Replicon Assay A”), replicon cells were seeded at 2000 cells/well in 384-well 384-well flat bottom tissue culture treated clear bottom plate (Corning 3707) in the presence of the test compound. […] The final concentration of DMSO was 0.5%. Fetal bovine serum was 5%, in the assay media. Cells were harvested on day 3 by removing media and washing the cells with a suitable wash buffer. The cells are lysed with the addition of 1× Qiagen lysis buffer (Cat #1062731). The replicon RNA level was measured using real time PCR (TaqMan® EZ RT-PCR, Applied Biosystems 403028) with the following primers and probes: […]
(§2) Cyclophilin RNA was used as endogenous control and was amplified in the same reaction as NS5B (multiplex PCR). The real-time RT-PCR reactions were run on ABI PRISM 7900HT Sequence Detection System using the following program: 50° C. for 2 minutes, 60° C. for 30 minutes, 95° C. for 5 minutes, 40 cycles of 94° C. for 20 sec, 55° C. for 1 minutes.
(§3) The amount of HCV replicon RNA per cell is quantified using a linear regression curve for a known nanogram (ng) amount of HCV replicon total RNA. This is established by plotting the Cycle Threshold values (Ct) from the Neo probe and primer set versus the log (ng) for each HCV replicon total RNA standard. The amount of HCV RNA for each replicon sample is calculated by taking the sample's Ct value, minus the line intercept, divided by the slope of the line. Similarly, the amount of Cyclophilin mRNA per cell is also quantified using a linear regression curve for a known nanogram (ng) amount of HCV replicon total RNA. Again, this is established by plotting the Cycle Threshold values (Ct) from the Cyclophilin probe and primer set versus the log (ng) for each HCV replicon total RNA standard.
(§4) Data for replicons 1A, 1AY93H and 2B were obtained using Replicon Assay A and data for replicons 1AQ30D and 1B were obtained using Replicon Assay B.

HCV replicon 2B = system: HCV replicon 2B
Procedure: as §1, §2, §3, §4

HCV replicon 1A = system: HCV replicon 1A
Procedure: as §1, §2, §3, §4

[1] = read-out: 1A Y93H IC50, replicon 1AY93H
[2] = read-out: 2B IC50, HCV replicon 2B
[3] = read-out: 1A Y93H IC50, HCV replicon 1A Y93H
[4] = Hepatitis C virus, HCV replicon 1A
[5] = Hepatitis C virus, read-out: 1A Y93H IC50 (nM), replicon 1AY93H
[6] = Hepatitis C virus, read-out: 2B IC50 (nM), replicon 2B

COC(=O)NC(C(=O)N1CCC[C@H]1c1ncc(-c2ccc3c(c2)cc2n3C(c3ccc(C4CC4)s3)Oc3cc(-c4cnc([C@@H]5CCCN5C(=O)[C@@H](NC(=O)OC)C(C)C)[nH]4)cc(F)c3-2)[nH]1)C1CCCCO1 (single isomer, unassigned) [Compound 341]
IC50 (HCV replicon 1AY93H; [1]): 0.52 nM
IC50 (HCV replicon 2B; read-out: 2B IC50, replicon 2B): 1.24 nM

COC(=O)N[C@H](C(=O)N1CCC[C@H]1c1ncc(-c2cc(F)c3c(c2)OC(c2ccc(C(CF)CF)s2)n2c-3cc3cc(-c4cnc([C@@H]5CCCN5C(=O)[C@@H](NC(=O)OC)C(C)C)[nH]4)ccc32)[nH]1)C(C)C (single isomer, unassigned) [Compound 121]
IC50 (HCV replicon 1A; replicon 1A): 1.2 pM
IC50 (HCV replicon 2B; read-out: 2B IC50, replicon 2B): 0.17 nM

COCc1ccc(C2Oc3cc(-c4cnc([C@@H]5CCCN5C(=O)[C@@H](NC(=O)OC)C(C)C)[nH]4)cc(F)c3-c3cc4cc(-c5c[nH]c([C@@H]6CCCN6C(=O)[C@@H](NC(=O)OC)C(C)C)n5)ccc4n32)s1 (single isomer, unassigned) [Compound 512]
IC50 (HCV replicon 1A; HCV replicon 1A): 2.82 pM
IC50 (HCV replicon 2B; [2]): 0.15 nM

COC(=O)NC(C(=O)N1CCC[C@H]1c1ncc(-c2ccc3c(c2)cc2n3C(c3ccc(C4CC4)s3)Oc3cc(-c4cnc([C@@H]5CCCN5C(=O)[C@@H](NC(=O)OC)C(C)C)[nH]4)cc(F)c3-2)[nH]1)C1CCOC2(CC2)C1 (single isomer, unassigned) [Compound 176]
IC50 (HCV replicon 1A; Hepatitis C virus, replicon 1A): 1.1 pM
IC50 (HCV replicon 2B; read-out: 2B IC50, replicon 2B): 0.046 nM

COC(=O)N[C@H](C(=O)N1CCC[C@H]1c1ncc(-c2cc(F)c3c(c2)OC(c2ccc(C4CC4(F)F)s2)n2c-3cc3cc(-c4cnc([C@@H]5CCCN5C(=O)[C@@H](NC(=O)OC)C(C)C)[nH]4)ccc32)[nH]1)C(C)C (single isomer, unassigned) [Compound 118]
IC50 (HCV replicon 1A; Hepatitis C virus, replicon 1A): 1.2 pM
IC50 (HCV replicon 2B; read-out: 2B IC50, replicon 2B): 0.97 nM

COC(=O)N[C@H](C(=O)N1CCC[C@H]1c1ncc(-c2cc(F)c3c(c2)OC(c2cc(C)c(C)s2)n2c-3cc3cc(-c4cnc([C@@H]5C[C@H]6C[C@H]6N5C(=O)[C@@H](NC(=O)OC)C(C)C)[nH]4)ccc32)[nH]1)C(C)C (single isomer, unassigned) [Compound 507]
IC50 (HCV replicon 1AY93H; [3]): 0.0896 nM
IC50 (HCV replicon 2B; [2]): 1.88 nM

COC(=O)N[C@H](C(=O)N1CCC[C@H]1c1ncc(-c2cc(F)c3c(c2)OC(c2sc(C4CC4)cc2F)n2c-3cc3cc(-c4cnc([C@@H]5CCCN5C(=O)[C@@H](NC(=O)OC)C(C)C)[nH]4)ccc32)[nH]1)C(C)C (single isomer, unassigned) [Compound 66]
IC50 (HCV replicon 1AY93H; [1]): 0.13 nM
IC50 (HCV replicon 2B; read-out: 2B IC50, replicon 2B): 0.23 nM

COC(=O)NC(C(=O)N1CCC[C@H]1c1ncc(-c2cc(F)c3c(c2)OC(c2ccc(C4CC4)s2)n2c-3cc3cc(-c4cnc([C@@H]5CCCN5C(=O)[C@@H](NC(=O)OC)C(C)C)[nH]4)ccc32)[nH]1)C(C)(C)F (single isomer, unassigned) [Compound 68]
IC50 (HCV replicon 1AY93H; [1]): 0.12 nM
IC50 (HCV replicon 2B; read-out: 2B IC50, replicon 2B): 1.12 nM

COC(=O)N[C@H](C(=O)N1CCC[C@H]1c1ncc(-c2cc(F)c3c(c2)OC(c2cc(C)c(C)s2)n2c-3cc3cc(-c4cnc([C@@H]5C[C@H]6C[C@H]6N5C(=O)[C@@H](NC(=O)OC)C(C)C)[nH]4)ccc32)[nH]1)C(C)C (single isomer, unassigned) [Compound 509]
IC50 (HCV replicon 1AY93H; [3]): 6.12 nM
IC50 (HCV replicon 2B; [2]): 6.82 nM

COC(=O)N[C@H](C(=O)N1CCC[C@H]1c1ncc(-c2cc(F)c3c(c2)OC(c2scc4c2OCCO4)n2c-3cc3cc(-c4cnc([C@@H]5CCCN5C(=O)[C@@H](NC(=O)OC)C(C)C)[nH]4)ccc32)[nH]1)C(C)C (single isomer, unassigned) [Compound 525]
IC50 (HCV replicon 1AY93H; [3]): 15.1 nM
IC50 (HCV replicon 2B; [2]): 3.14 nM

COC(=O)NC(C(=O)N1[C@@H]2C[C@@H]2C[C@H]1c1ncc(-c2ccc3c(c2)cc2n3C(c3ccc(C(F)F)s3)Oc3cc(-c4cnc([C@@H]5CCCN5C(=O)[C@@H](NC(=O)OC)C(C)C)[nH]4)cc(F)c3-2)[nH]1)C1C[C@@H](C)O[C@@H](C)C1 (single isomer, unassigned) [Compound 286]
IC50 (HCV replicon 1A; Hepatitis C virus, replicon 1A): 1 pM
IC50 (HCV replicon 2B; read-out: 2B IC50, replicon 2B): 0.018 nM

COC(=O)NC(C(=O)N1CCC[C@H]1c1ncc(-c2ccc3c(c2)cc2n3C(c3ccc(C4CC4)s3)Oc3cc(-c4cnc([C@@H]5C[C@H]6C[C@H]6N5C(=O)[C@@H](NC(=O)OC)C(C)C)[nH]4)cc(F)c3-2)[nH]1)C1C[C@@H](C)O[C@@H](C)C1 (single isomer, unassigned) [Compound 536]
IC50 (HCV replicon 1A; [4]): 2.72 pM
IC50 (HCV replicon 2B; [2]): 0.0219 nM

COC(=O)NC(C(=O)N1[C@@H]2C[C@@H]2C[C@H]1c1ncc(-c2ccc3c(c2)cc2n3C(c3cc4ccccc4s3)Oc3cc(-c4cnc([C@@H]5CCCN5C(=O)[C@@H](NC(=O)OC)C(C)C)[nH]4)cc(F)c3-2)[nH]1)C1C[C@@H](C)O[C@@H](C)C1 (single isomer, unassigned) [Compound 647]
IC50 (HCV replicon 1A; [4]): 2.6 pM
IC50 (HCV replicon 2B; [2]): 0.153 nM

COC(=O)NC(C(=O)N1[C@@H]2C[C@@H]2C[C@H]1c1ncc(-c2ccc3c(c2)cc2n3C(c3ccc(C(C)C)s3)Oc3cc(-c4cnc([C@@H]5CCCN5C(=O)[C@@H](NC(=O)OC)C(C)C)[nH]4)cc(F)c3-2)[nH]1)C1C[C@@H](C)O[C@@H](C)C1 (single isomer, unassigned) [Compound 283]
IC50 (HCV replicon 1AY93H; [5]): 0.192 nM
IC50 (HCV replicon 2B; [6]): 0.68 nM

COC(=O)N[C@H](C(=O)N1CCC[C@H]1c1ncc(-c2cc(F)c3c(c2)OC(c2ccc(CC4CC4)s2)n2c-3cc3cc(-c4cnc([C@@H]5CCCN5C(=O)[C@@H](NC(=O)OC)C(C)C)[nH]4)ccc32)[nH]1)C(C)C (single isomer, unassigned) [Compound 53]
IC50 (HCV replicon 1AY93H; [5]): 1.87 nM
IC50 (HCV replicon 2B; [6]): 1.95 nM

COCc1ccc(C2Oc3cc(-c4cnc([C@@H]5CCCN5C(=O)[C@@H](NC(=O)OC)C(C)C)[nH]4)cc(F)c3-c3cc4cc(-c5cnc([C@@H]6CCCN6C(=O)[C@@H](NC(=O)OC)[C@@H]6C[C@@H](C)O[C@@H](C)C6)[nH]5)ccc4n32)s1 (single isomer, unassigned) [Compound 534]
IC50 (HCV replicon 1A; HCV replicon 1A): 6.92 pM
IC50 (HCV replicon 2B; [2]): 0.02 nM

COC(=O)N[C@H](C(=O)N1CCC[C@H]1c1ncc(-c2cc(F)c3c(c2)OC(c2ccc(C(C)CF)s2)n2c-3cc3cc(-c4cnc([C@@H]5CCCN5C(=O)[C@@H](NC(=O)OC)C(C)C)[nH]4)ccc32)[nH]1)C(C)C (single isomer, unassigned) [Compound 333]
IC50 (HCV replicon 1A; replicon 1A): 1 pM
IC50 (HCV replicon 2B; read-out: 2B IC50, replicon 2B): 0.0314 nM

COC(=O)N[C@H](C(=O)N1CCC[C@H]1c1ncc(-c2cc(F)c3c(c2)OC(c2ccc(C(C)C(F)(F)F)s2)n2c-3cc3cc(-c4cnc([C@@H]5CCCN5C(=O)[C@@H](NC(=O)OC)C(C)C)[nH]4)ccc32)[nH]1)C(C)C (single isomer, unassigned) [Compound 133]
IC50 (HCV replicon 1A; replicon 1A): 2 pM
IC50 (HCV replicon 2B; read-out: 2B IC50, replicon 2B): 0.15 nM

COC(=O)NC(C(=O)N1CCC[C@H]1c1ncc(-c2ccc3c(c2)cc2n3C(c3ccc(C4CC4)s3)Oc3cc(-c4cnc([C@@H]5CCCN5C(=O)[C@@H](NC(=O)OC)C(C)C)[nH]4)cc(F)c3-2)[nH]1)C1CCOC2(CC2)C1 (single isomer, unassigned) [Compound 179]
IC50 (HCV replicon 1A; replicon 1A): 1.2 pM
IC50 (HCV replicon 2B; read-out: 2B IC50, replicon 2B): 4.63 nM

[2H]C(C)(C)C(NC(=O)OC)C(=O)N1CCC[C@H]1c1ncc(-c2cc(F)c3c(c2)OC(c2ccc(C4CC4)s2)n2c-3cc3cc(-c4cnc([C@@H]5CCCN5C(=O)[C@@H](NC(=O)OC)C(C)C)[nH]4)ccc32)[nH]1 (single isomer, unassigned) [Compound 30]
IC50 (HCV replicon 1A; replicon 1A): 51.3 pM
IC50 (HCV replicon 2B; read-out: 2B IC50, replicon 2B): 33.3 nM

COC(=O)NC(C(=O)N1CCC[C@H]1c1ncc(-c2ccc3c(c2)cc2n3C(c3ccc(C4CC4)s3)Oc3cc(-c4cnc([C@@H]5CCCN5C(=O)[C@@H](NC(=O)OC)C(C)C)[nH]4)cc(F)c3-2)[nH]1)C1CCO[C@@H](C)C1 (single isomer, unassigned) [Compound 401]
IC50 (HCV replicon 1A; replicon 1A): 1.8 pM
IC50 (HCV replicon 2B; read-out: 2B IC50, replicon 2B): 0.0064 nM

COC(=O)NC(C(=O)N1CCC[C@H]1c1ncc(-c2ccc3c(c2)cc2n3C(c3ccc(C4CC4)s3)Oc3cc(-c4cnc([C@@H]5CCCN5C(=O)[C@@H](NC(=O)OC)C(C)C)[nH]4)cc(F)c3-2)[nH]1)C1CCOC2(CC2)C1 (single isomer, unassigned) [Compound 177]
IC50 (HCV replicon 1A; replicon 1A): 1.4 pM
IC50 (HCV replicon 2B; read-out: 2B IC50, replicon 2B): 0.016 nM

COC(=O)NC(C(=O)N1CCC[C@H]1c1ncc(-c2ccc3c(c2)cc2n3C(c3ccc(C4CC4)s3)Oc3cc(-c4cnc([C@@H]5CCCN5C(=O)[C@@H](NC(=O)OC)C(C)C)[nH]4)cc(F)c3-2)[nH]1)C1CCOC2(CC2)C1 (single isomer, unassigned) [Compound 178]
IC50 (HCV replicon 1A; replicon 1A): 1.7 pM
IC50 (HCV replicon 2B; read-out: 2B IC50, replicon 2B): 3.4 nM
